Results on 27 compounds are retold here after US6242494A, “Substituted β-amino acid inhibitors of methionine aminopeptidase-2” (Abbott Laboratories, priority 1999, dated 2001).

Structures can show the parent of a compound that is named as a salt.

The target in the assay is T1, methionine aminopeptidase-2 (MetAP2) (Homo sapiens, UniProt P50579).
T1 construct: made in house; host or cells: insect cells, baculovirus system (secreted, purified from culture supernatant)
In words: Inhibition of MetAP2 enzyme activity (96-well, Met-Ala-Ser substrate, L-amino acid oxidase/peroxidase/ortho-dianisidine, 450 nm). The note with it: pH 7.4, Met-Ala-Ser substrate, 20 minutes. Format: biochemical. On the procedure: The ability of compounds of the present invention to inhibit methionine aminopeptidase 2 was evaluated using the following assay.
Assays for MetAP2 enzyme activity and MetAP2 inhibition were performed in 96-well microtiter plates. Compounds to be tested for MetAP2 inhibition were dissolved in dimethyl-sulfoxide at 10 mM and diluted ten-fold in assay buffer ([…], pH 7.4, 100 mM NaCl). Ten microliters of solution of each compound to be tested for inhibition were introduced into each cell of the plate, with each compound being tested in triplicate.
The absorbence at 450 nanometers was measured every 20 seconds over a period of twenty minutes using an automaic plate reader (Molecular Devices, CA, USA). The Vmax in mOD/min, calculated for each well was used to represent MetAP2 activity. The IC50 for each inhibitor was obtained by plotting the remaining MetAP2 activity versus inhibitor concentration.

Where [1] appears, read: IC50, recombinant MetAP2 4 μg/mL.

T1 sequence (P50579 whole entry): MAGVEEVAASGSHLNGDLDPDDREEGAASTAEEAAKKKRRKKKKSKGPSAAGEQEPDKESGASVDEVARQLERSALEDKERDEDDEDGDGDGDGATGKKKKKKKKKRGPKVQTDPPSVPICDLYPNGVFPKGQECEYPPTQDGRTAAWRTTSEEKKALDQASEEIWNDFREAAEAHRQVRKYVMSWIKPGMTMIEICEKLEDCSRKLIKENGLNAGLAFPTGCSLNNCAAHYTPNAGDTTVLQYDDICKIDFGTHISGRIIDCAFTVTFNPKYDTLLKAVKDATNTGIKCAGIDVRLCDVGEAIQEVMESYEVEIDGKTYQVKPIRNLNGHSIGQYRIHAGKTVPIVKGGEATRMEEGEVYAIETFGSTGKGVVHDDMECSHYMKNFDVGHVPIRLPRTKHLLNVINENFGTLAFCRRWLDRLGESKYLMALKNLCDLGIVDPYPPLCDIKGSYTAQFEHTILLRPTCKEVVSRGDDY

In general, IC50 refers to the concentration at which inhibition is half-maximal. For `N[C@H](Cc1ccccc1)C(O)C(=O)NCCCCc1ccccc1` (mixture of isomers) [Example 22, (2RS,3R)-N-(4-phenylbutyl)-3-amino-2-hydroxy-4-phenyl-butanamide hydrochloride], the IC50 under setting [1] worked out at 3400 nM.
Consider `N[C@H](CC1CCCCC1)C(O)C(=O)NCc1cccc2ccccc12` (stereo partly drawn) [Example 235, (2RS,3R)-3-amino-4-cyclohexyl-2-hydroxy-N-(1-napthylmethyl)butanamide Hydrochloride], for which, under setting [1], the IC50 was 970 nM.
Still for that read-out and setting: as for `N[C@H](CC1CCCCC1)C(O)C(=O)Nc1ccccc1Cl` (mixture of isomers) [Example 149, (2RS,3R)-3-amino-N-(2-chlorophenyl)-4-cyclohexyl-2-hydroxybutanamide], the figure is 930 nM; as for `CC(CCc1ccccc1)NC(=O)C(O)[C@H](N)CC1CCCCC1` (mixture of isomers) [Example 209, (2RS,3R)-3-amino-4-cyclohexyl-2-hydroxy-N-(1-methyl-3-phenylpropyl)butanamide Hydrochloride], 14000 nM.
The same measure, in the same setting: next, `N[C@H](CC1CCCCC1)C(O)C(=O)NCCc1ccccc1` (mixture of isomers) [Example 192, (2RS,3R)-3-amino-4-cyclohexyl-2-hydroxy-N-phenethylbutanamide hydrochloride]: 1200 nM.
In the case of `N[C@H](CC1CCCCC1)C(O)C(=O)N[C@H]1C[C@@H]1c1ccccc1` (mixture of isomers) [Example 229, (2RS,3R)-3-amino-4-cyclohexyl-2-hydroxy-N-((1S,2R)-2-phenylcyclopropyl)butanamide Hydrochloride], the IC50 under setting [1] is 1200 nM.
In the case of `COc1ccc(C(F)(F)F)cc1NC(=O)C(O)[C@H](N)CC1CCCCC1` (mixture of isomers) [Example 220, (2RS,3R)-3-amino-4-cyclohexyl-2-hydroxy-N-(2-methoxy-5-(trifluoromethyl)phenyl)butanamide Hydrochloride], under setting [1], the IC50 came to 5500 nM.
Still for that read-out and setting: as for `NCCCCNC(=O)C(O)[C@H](N)CC1CCCCC1` (stereo partly drawn) [Example 82, (2RS,3R)-3-amino-2-hydroxy-4-cyclohexyl)butanoyl-(4-aminobutyl)amide dihydrochloride], the figure is 38000 nM.
Same read-out and setting: as for `N[C@H](CC1CCCCC1)C(O)C(=O)Nc1ccccc1Oc1ccccc1` (mixture of isomers) [Example 183, (2RS,3R)-3-amino-4-cyclohexyl-2-hydroxy-N-(2-phenoxyphenyl)butanamide hydrochloride], the figure is 8700 nM; as for `N[C@H](CC1CCCCC1)C(O)C(=O)NCCc1ccc(S(N)(=O)=O)cc1` (stereo partly drawn) [Example 88, (2RS,3R)-3-amino-2-hydroxy-4-cyclohexyl)butanoyl-L-alanine-4-sulfonamide benzyl ester hydrochloride], 2200 nM; as for `N[C@H](CC1CCCCC1)C(O)C(=O)NCCc1ccc(OCc2ccccc2)c(OCc2ccccc2)c1` (mixture of isomers) [Example 167, (2RS,3R)-3-amino-N-(3,4-bis(benzyloxy)phenethyl)-4-cyclohexyl-2-hydroxybutanamide hydrochloride], 3300 nM.
Take `N[C@H](CC1CCCCC1)C(O)C(=O)NC1CCCc2ccccc21` (mixture of isomers) [Example 110, (2RS,3R)-3-Amino-4-cyclohexyl-2-hydroxy-N-(1,2,3,4-tetrahydro-1-naphthalenyl)butanamide Hydrochloride]: the IC50 (recombinant MetAP2 4 μg/mL) amounted to 1000 nM.
Regarding `CC(C)(C)CC(C)(C)NC(=O)C(O)[C@H](N)CC1CCCCC1` (mixture of isomers) [Example 230, (2RS,3R)-3-amino-4-cyclohexyl-2-hydroxy-N-(1,1,3,3-tetramethylbutyl)butanamide Hydrochloride], the IC50 under setting [1] is 34000 nM.
Still for that read-out and setting: as for `N[C@H](CC1CCCCC1)C(O)C(=O)NC12CC3CC(CC(C3)C1)C2` (mixture of isomers) [Example 202, (2RS,3R)-N-(1-adamantyl)-3-amino-4-cyclohexyl-2-hydroxybutanamide Hydrochloride], the figure is 8300 nM.
Regarding `N[C@H](CC1CCCCC1)C(O)C(=O)N[C@@H](CO)C(=O)OCc1cccc([N+](=O)[O-])c1` (stereo partly drawn) [Example 139, 3-nitrobenzyl (2RS,3R,2'S)-2-((3-amino-4-cyclohexyl-2-hydroxybutanoyl)amino)-3-hydroxypropanoate trifluoroacetate], under setting [1], the IC50 stood at 1700 nM.
As to `N[C@H](CC1CCCCC1)C(O)C(=O)Nc1cccc(Cl)c1` (mixture of isomers) [Example 148, (2RS,3R)-3-amino-N-(3-chlorophenyl)-4-cyclohexyl-2-hydroxybutanamide], under setting [1], the IC50 worked out at 520 nM.
The same measure, in the same setting: next, `N[C@H](CC1CCCCC1)C(O)C(=O)NCc1cccc(C(F)(F)F)c1` (stereo partly drawn) [Example 157]: 1600 nM.
For the compound `N[C@H](CC1CCCCC1)C(O)C(=O)NCc1ccc(Br)cc1` (mixture of isomers) [Example 190, (2RS,3R)-3-amino-N-(4-bromobenzyl)-4-cyclohexyl-2-hydroxybutanamide hydrochloride], the IC50 under setting [1] stood at 1300 nM.
Still for that read-out and setting: as for `CC(C)CCC(C)NC(=O)C(O)[C@H](N)CC1CCCCC1` (mixture of isomers) [Example 217, (2RS,3R)-3-amino-4-cyclohexyl-N-(1,4-dimethylpentyl)-2-hydroxybutanamide Hydrochloride], the figure is 1800 nM; as for `COc1cc(CCNC(=O)C(O)[C@H](N)CC2CCCCC2)ccc1O` (stereo partly drawn) [Example 59], 1500 nM; as for `C[C@H](NC(=O)C(O)[C@H](N)CC1CCCCC1)C(=O)OC1CCCCC1` (stereo partly drawn) [Example 90, (2RS,3R)-3-Amino-2-hydroxy-4-cyclohexyl)butanoyl-L-alanine Cyclohexyl Ester Hydrochloride], 2300 nM.
Same read-out and setting: as for `CSCC[C@@H](N)C(O)C(=O)NCCc1ccncc1` (mixture of isomers) [Example 19, (2RS,3R)-N-(2-(4-pyridyl)ethyl)-3-amino-2-hydroxy-5-(methylthio)pentanamide], the figure is 1600 nM; as for `Cc1cccc(C)c1NC(=O)C(O)[C@H](N)CC1CCCCC1` (mixture of isomers) [Example 172, (2RS,3R)-3-amino-4-cyclohexyl-N-(2,6-dimethylphenyl)-2-hydroxybutanamide hydrochloride], 5000 nM.
Turning to `C[C@@H](NC(=O)C(O)[C@H](N)CC1CCCCC1)c1cccc2ccccc12` (mixture of isomers) [Example 134, (2RS,3R)-3-amino-4-cyclohexyl-2-hydroxy-N-((1R)-1-(1-naphthyl)ethyl)butanamide hydrochloride], under setting [1], the IC50 came out at 3100 nM.
As for `N[C@H](CC1CCCCC1)C(O)C(=O)NCc1ccccc1C(F)(F)F` (mixture of isomers) [Example 238, (2RS,3R)-3-amino-4-cyclohexyl-2-hydroxy-N-(2-(trifluoromethyl)benzyl)butanamide], the IC50 under setting [1] is 2700 nM.
The same measure, in the same setting: next, `CC(C)(C)OC(=O)CNC(=O)C(O)[C@H](N)CC1CCCCC1` (mixture of isomers) [Example 126, tert-butyl (2RS,3R)-2-((3-amino-4-cyclohexyl-2-hydroxybutanoyl)amino)acetate hydrochloride]: 13000 nM.
Same read-out and setting: as for `N[C@H](CC1CCCCC1)C(O)C(=O)Nc1ccc(F)cc1` (mixture of isomers) [Example 144, (2RS,3R)-3-amino-4-cyclohexyl-N-(4-fluorophenyl)-2-hydroxybutanamide], the figure is 2100 nM.
